Experiments:
[1] = test system: B16F10 melanoma; experiment: Subcutaneous B16F10 melanoma model, anti-4-1BB and avelumab (Example 3); type: in vivo; settings: anti-4-1BB 0.1 mg/mL, avelumab 1 mg/mL, 0.2 mL per mouse ip, 3 doses 3 to 4 days apart, C57BL/6 mice
Method: Six (6)- to 8-week old female C57BL/6 mice were purchased from the Jackson Laboratories. All animals were housed in a pathogen free vivarium facility at Rinat and experiments were conducted according to the protocols in accordance with the Institutional Animal Care and Use Committee (IACUC) guidelines.
The B16F10 melanoma cell line was purchased from American Type Culture Collection (ATCC). The MC38 colon carcinoma cell line was kindly provided by Dr. Antoni Ribas at University of California, Los Angeles, Calif. Cells were cultured in Dulbecco's Modified Eagle's Medium (DMEM) supplemented with 10% fetal bovine serum (FBS), 2 mM L-glutamine at 37° C. in 5% carbon dioxide (CO2), and IMPACT-tested for pathogens at Research Animal Diagnostic Laboratory (RADIL) (Columbia, Mo.). Pathogen-free cells growing in an exponential growth phase were harvested and used for tumor inoculation.
Therapeutic mouse anti-mouse 4-1BB mAb (mouse immunoglobulin G1 [mIgG1]), derived from the parental clone MAB9371 (R&D Systems), was prepared in-house. Avelumab was provided by Merck Serono. Isotype control mIgG1 (clone: MOPC-21) was purchased from BioXcell. Human IgG1 was prepared in-house. Anti-4-1BB and avelumab were diluted to concentrations of 0.1 mg/mL and 1 mg/mL, respectively, in phosphate buffered saline (PBS) (Life Technologies), and dosed at 0.2 mL per mouse intraperitoneally (ip) for 3 doses 3 to 4 days apart.
C57BL/6 mice were inoculated subcutaneously at the right flank with 0.2×10^6 B16F10 or 0.5×10^6 MC38 cells in 0.1 mL of serum-free DMEM. When tumors reached target size, mice were randomized into treatment groups. Treatment was started on the same day as randomization. Tumor size was measured twice weekly in 2 dimensions using a caliper, and the volume was expressed in cubic millimeters using the formula: V=0.5 L×W^2 where L is the longest diameter of the tumor and W is the diameter perpendicular to L. Body weight was recorded weekly.
Results were expressed as mean±SEM. Statistical analyses were performed using GraphPad Prism 6.0. One-way or 2-way ANOVA was applied to compare the statistical differences among multiple groups relative to the isotype control. P<0.05 was considered as significant difference.
Two murine models were used to evaluate the therapeutic efficacy of anti-4-1BB in combination with avelumab. In the B16F10 melanoma model, the average starting tumor size was 67 to 78 mm^3 (range 44 to 114 mm^3; n=7 animals per group) (Table 5). By Day 26 post tumor inoculation, the tumors for isotype, anti-4-1BB alone, and avelumab alone groups reached an average of 1206±397 mm^3, 1979±425 mm^3, and 2112±429 mm^3, respectively (Table 5). By contrast, dramatic tumor suppression (average of 341±146 mm^3) was observed when animals were administered with anti-4-1BB and avelumab concurrently (p<0.0001 vs single agent alone groups) (Table 5).

[2] = test system: MC38 tumors; experiment: Flow cytometry of tumor-infiltrating lymphocytes from MC38 tumors after treatment (Example 3); type: in vivo, mouse; settings: TILs isolated from MC38 tumors after treatment
From the text: Antibodies used for cell surface or intracellular staining were purchased from BD Biosciences or eBioscience. They were rat anti-mouse CD4-PerCP-Cy5.5 (clone RM4-5, BD Biosciences), rat anti-mouse CD8a-APC-H7 (clone 53-6.7, BD Biosciences), rat anti-mouse CD25-PE-Cy7 (clone PC61, BD Biosciences), rat anti-mouse CD45-BV510 (clone 30-F11, BD Biosciences), rat anti-mouse CD90.2-FITC (clone 53-2.1, BD Biosciences), rat anti-mouse Eomes-PE (clone: Dan11mag, eBioscience), rat anti-mouse FoxP3-eFluor450 (clone FJK-16s, eBioscience), and rat anti-mouse NKp46-BV421 or -AF647 (clone 29A1.4, BD Biosciences). Live cells were separated from dead cells using LIVE/DEAD Fixable Blue Dead Cell Stain Kit (Invitrogen). […]
An aliquot of cells was pre-incubated with 10 μg/mL of mouse BD Fc Block (BD Biosciences) for 10 minutes before phenotyping mAbs were added to specifically stain immune cells. […] After removing unbound mAbs, cells were washed twice with FACS staining buffer, fixed in fixative buffer (PBS+2% FBS+1% paraformaldehyde), and stored at 4° C. in the dark until analyzed by flow cytometry. […] Flow cytometry data were acquired using LSR Fortessa (BD Biosciences) and analyzed using FlowJo (TreeStar Inc.).
Results were expressed as mean±SEM. […]
Tumor-infiltrating lymphocytes (TILs) were isolated from MC38 tumors after treatment and analyzed for markers associated with anti-tumor immune response. […]

Substance: Avelumab: fully human mAb of the IgG1 isotype that specifically targets and blocks PD-L1
- Tumor Measurements of Subcutaneous B16F10 Melanoma, Mean tumor volume ([1]; Day 13 post tumor inoculation (starting tumor size)): 78 mm^3
- Tumor Measurements of Subcutaneous B16F10 Melanoma, Mean tumor volume ([1]; Day 17 post tumor inoculation): 327 mm^3
- Tumor Measurements of Subcutaneous B16F10 Melanoma, Mean tumor volume ([1]; Day 20 post tumor inoculation): 654 mm^3
- Tumor Measurements of Subcutaneous B16F10 Melanoma, Mean tumor volume ([1]; Day 24 post tumor inoculation): 1304 mm^3
- Tumor Measurements of Subcutaneous B16F10 Melanoma, Mean tumor volume ([1]; Day 26 post tumor inoculation): 2112 mm^3
- Tumor Measurements of Subcutaneous B16F10 Melanoma, Mean tumor volume ([1]; Day 26 post tumor inoculation, listed as avelumab): 2112±429 mm^3
- ratio of CD8+ T cells/regulatory T cell (Treg) ([2]; FIG. 2): 2.5
- T-cell frequency (of CD45+ cells) in tumors ([2]; average, FIG. 1): 36%

Source: patent publication US10869924B2, “PD-L1 antagonist combination treatments” (MERCK PATENT GMBH, priority 2015, dated 2020)
